The target in this assay is Pseudomonas plecoglossicida arginine deiminase (PpADI) variant M2 (K5T D44E H404R) (Pseudomonas plecoglossicida, UniProt A7LKB0, D44E/H404R/K5T). In words: Determination of kcat and Km (citrulline colorimetric assay, purified enzyme). The format is biochemical, Pseudomonas plecoglossicida CGMCC2039. The settings on record: pH 7.4, conversion of arginine to citrulline, compared to wild type. The method, then:
The kcat and Km values were determined from initial velocity data measured as a function of substrate concentration. Enzyme reaction was carried out at 37°C in a water bath. After 10 min preincubation at 37"C, the enzyme reaction was initiated by addition of purified enzyme (50 µl, 0.2-0.5 µM) to the substrate solution (200 µl, 0.2 mM to 10 mM of arginine, 0.5 M phosphate buffer, pH 7.4) in deep well plates. The reaction mixture was incubated (37°C) and every two minutes reaction mixture (30 µl) of each well was transferred to acid-ferric solution (30 µl) to stop the enzyme reaction. The color development was subsequently performed in 96-well PCR plate. Ferric-acid solution (90 µl) and DAM-TSC solution (15 µl) were added to each well. The 96-well PCR plate was then incubated (70°C, 30 min) in thermal cycler (Eppendorf Mastercyler gradient) for color development, followed by incubation in ice water to stop color development. Absorbance was measured at 530 nm using a microtiter plate reader (SPECTROstar Omega, BMG LABTECH, Offenburg, Germany). […] The kcat was calculated from the ratio of Vmax, and enzyme concentration. […]

Sequence of Pseudomonas plecoglossicida arginine deiminase (PpADI) variant M2 (K5T D44E H404R) (A7LKB0 whole entry D44E/H404R/K5T): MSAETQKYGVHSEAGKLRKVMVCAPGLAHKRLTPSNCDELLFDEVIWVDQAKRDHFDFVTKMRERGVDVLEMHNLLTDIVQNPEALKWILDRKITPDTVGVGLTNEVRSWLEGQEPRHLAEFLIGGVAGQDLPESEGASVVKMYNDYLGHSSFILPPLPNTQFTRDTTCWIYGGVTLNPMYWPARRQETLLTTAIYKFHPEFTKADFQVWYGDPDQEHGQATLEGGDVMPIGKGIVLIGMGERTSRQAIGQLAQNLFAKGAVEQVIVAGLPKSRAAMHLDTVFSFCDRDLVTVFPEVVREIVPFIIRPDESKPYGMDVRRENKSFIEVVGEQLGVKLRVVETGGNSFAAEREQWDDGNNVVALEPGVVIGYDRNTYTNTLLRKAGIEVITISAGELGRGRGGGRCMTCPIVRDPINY

For the molecule `N=C(N)NCCC[C@H](N)C(=O)O` [arginine], the “kcat, fold higher than wild type PpADI” value came to 4 fold.

Values taken from patent EP2295560A1, “Directed evolution of arginine deiminase for increased activity at physiological pH” (priority 2009, dated 2011).
